Here are results for twelve molecules from patent publication US8557847B2, “Synergistic modulation of FLT3 kinase using a FLT3 inhibitor and a farnesyl transferase inhibitor” (Janssen Pharmaceutica, N.V., priority 2005, dated 2013).

Where a name gives a salt, the structure may show the parent alone.

The assay addresses T1, isolated kinase domain of the human FLT3 receptor (a.a. 571-993) (Homo sapiens, UniProt P36888).
T1 construct: human FLT3 receptor (a.a. 571-993)
T1 sequence (P36888 571-993): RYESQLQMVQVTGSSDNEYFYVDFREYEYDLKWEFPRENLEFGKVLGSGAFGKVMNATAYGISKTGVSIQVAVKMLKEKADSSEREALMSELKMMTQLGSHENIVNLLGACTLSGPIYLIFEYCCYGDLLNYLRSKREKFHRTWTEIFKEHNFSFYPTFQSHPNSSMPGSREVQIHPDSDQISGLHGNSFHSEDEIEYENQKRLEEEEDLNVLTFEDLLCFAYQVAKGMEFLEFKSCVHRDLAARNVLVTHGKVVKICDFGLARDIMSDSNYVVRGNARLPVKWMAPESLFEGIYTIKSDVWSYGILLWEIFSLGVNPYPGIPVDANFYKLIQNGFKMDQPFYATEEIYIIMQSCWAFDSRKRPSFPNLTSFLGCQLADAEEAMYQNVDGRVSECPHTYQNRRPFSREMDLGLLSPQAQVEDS
The experiment in a line: FLT3 fluorescence polarization kinase assay. The class given is biochemical. The note with it: 150 uM ATP; uncertainty ±10%; read-out: Flt-3 IC50. The text has this:
The FLT3 FP assay utilizes the fluorescein-labeled phosphopeptide and the anti-phosphotyrosine antibody included in the Panvera Phospho-Tyrosine Kinase Kit (Green) supplied by Invitrogen. When FLT3 phosphorylates polyGlu4Tyr, the fluorescein-labeled phosphopeptide is displaced from the anti-phosphotyrosine antibody by the phosphorylated poly Glu4Tyr, thus decreasing the FP value. […] The kinase reaction is stopped with the addition of EDTA. The fluorescein-labeled phosphopeptide and the anti-phosphotyrosine antibody are added and incubated for 30 minutes at room temperature.
Data points are an average of triplicate samples. Inhibition and IC50 data analysis was done with GraphPad Prism using a non-linear regression fit with a multiparamater, sigmoidal dose-response (variable slope) equation.
`N#Cc1c[nH]c(C(=O)Nc2ccc(C3CCN(C(CO)CO)CC3)cc2C2=CCCCC2)n1` [Compound 6, 4-Cyano-1H-imidazole-2-carboxylic acid {2-cyclohex-1-enyl-4-[1-(2-hydroxy-1-hydroxymethyl-ethyl)-piperidin-4-yl]-phenyl}-amide trifluoroacetic acid salt]: the IC50 came out at 82 nM. As for `Cc1ccccc1-c1cc(N2CCN(C)CC2)ccc1NC(=O)c1ccc(C#N)o1` [Compound 9, 5-Cyano-furan-2-carboxylic acid [2′-methyl-5-(4-methyl-piperazin-1-yl)-biphenyl-2-yl]-amide], the IC50 was found to be 97 nM. The same measure for `CN1CCN(c2ccc(NC(=O)c3ccc(C#N)o3)c(C3=CCOCC3)c2)CC1` [Compound 12]: 1240 nM. The same measure for `N#Cc1c[nH]c(C(=O)Nc2ccc(C3CCNCC3)cc2C2=CCCCC2)c1` [Compound 13, 4-Cyano-1H-pyrrole-2-carboxylic acid (2-cyclohex-1-enyl-4-piperidin-4-yl-phenyl)-amide trifluoroacetic acid salt]: 34 nM; for `CC(=O)N1CCC(c2ccc(NC(=O)c3nc(C#N)c[nH]3)c(C3=CCCCC3)c2)CC1` [Compound 16, 4-Cyano-1H-imidazole-2-carboxylic acid [4-(1-acetyl-piperidin-4-yl)-2-cyclohex-1-enyl-phenyl]-amide]: 39 nM.

In the case of `CC1CC=C(c2cc(C3CCNCC3)ccc2NC(=O)c2nc(C#N)c[nH]2)CC1` (stereo not drawn) [Compound 17, 4-Cyano-1H-imidazole-2-carboxylic acid [2-(4-methyl-cyclohex-1-enyl)-4-piperidin-4-yl-phenyl]-amide trifluoroacetic acid salt], the IC50 was found to be 13 nM. The same measure for `CS(=O)(=O)CC(=O)N1CCC(c2ccc(NC(=O)c3nc(C#N)c[nH]3)c(C3=CCCCC3)c2)CC1` [Compound 20, 4-Cyano-1H-imidazole-2-carboxylic acid {2-cyclohex-1-enyl-4-[1-(2-methanesulfonyl-acetyl)-piperidin-4-yl]-phenyl}-amide]: 130 nM; for `Cn1ccnc1CN1CCC(c2ccc(NC(=O)c3nc(C#N)c[nH]3)c(C3=CCCC3)c2)CC1` [Compound 23, 4-Cyano-1H-imidazole-2-carboxylic acid {2-cyclopent-1-enyl-4-[1-(1-methyl-1H-imidazol-2-ylmethyl)-piperidin-4-yl]-phenyl}-amide trifluoroacetic acid salt]: 16 nM; for `N#Cc1c[nH]c(C(=O)Nc2ccc(C3CCN(C(N)=O)CC3)cc2C2=CCCCC2)n1` [Compound 24, 4-{4-[(4-Cyano-1H-imidazole-2-carbonyl)-amino]-3-cyclohex-1-enyl-phenyl}-piperidine-1-carboxylic acid amide]: 370 nM. Consider `N#Cc1c[nH]c(C(=O)Nc2ccc(C3CCN(CCO)CC3)cc2C2=CCCCC2)n1` [Compound 26, 4-Cyano-1H-imidazole-2-carboxylic acid {2-cyclohex-1-enyl-4-[1-(2-hydroxy-ethyl)-piperidin-4-yl]-phenyl}-amide trifluoroacetic acid salt], for which the half-inhibitory concentration (IC50) was determined as 53 nM.

For `N#Cc1c[nH]c(C(=O)Nc2ccc(C3CCS(=O)(=O)CC3)cc2C2=CCCCC2)n1` [Compound 35, 4-Cyano-1H-imidazole-2-carboxylic acid [2-cyclohex-1-enyl-4-(1,1-dioxo-hexahydro-1λ^6-thiopyran-4-yl)-phenyl]-amide], the half-maximal inhibitory concentration (IC50) was 120 nM. For the molecule `CC(=O)N1CCC(c2ccc(NC(=O)c3nc(C#N)c[nH]3)c(C3=CCCNC3)c2)CC1` [Compound 46, 4-Cyano-1H-imidazole-2-carboxylic acid [4-(1-acetyl-piperidin-4-yl)-2-(1,2,5,6-tetrahydro-pyridin-3-yl)-phenyl]-amide trifluoroacetic acid salt], the IC50 came to 39 nM.
